# Read-outs that look alike come from different tables or passages of the source.
# Legend:
# NCI-H23 [1] = tested on: NCI-H23
# NCI-H460 [2] = tested on: NCI-H460
# NCI-H522 [3] = tested on: NCI-H522
# CCRF-CEM = assay: cells; conditions: Homo sapiens
# HL-60(TB) = assay: cells; conditions: Homo sapiens
# K-562 = assay: cells; conditions: Homo sapiens
# PC-3 [4] = tested on: PC-3
# MOLT-4 = assay: cells; conditions: Homo sapiens
# DU-145 [5] = tested on: DU-145
# RPMI-8226 = assay: cells; conditions: Homo sapiens
# A549/ATCC = assay: cells; conditions: Homo sapiens
# EKVX = assay: cells; conditions: Homo sapiens
# HOP-62 = assay: cells; conditions: Homo sapiens
# HOP-92 = assay: cells; conditions: Homo sapiens
# NCI-H226 = assay: cells; conditions: Homo sapiens
# NCI-H23 [6] = assay: cells; conditions: Homo sapiens
# NCI-H460 [7] = assay: cells; conditions: Homo sapiens
# NCI-H522 [8] = assay: cells; conditions: Homo sapiens
# PC-3 [9] = assay: cells; conditions: Homo sapiens
# DU-145 [10] = assay: cells; conditions: Homo sapiens
structure (smiles),measurement,setting,value
"O=C1c2ccccc2C(=O)c2c1ccc1nsnc21 [No. 22, Anthra[2,1-c][1,2,5]thiadiazole-6,11-dione]",Percent Growth,NCI-H23 [1]; Log10 Concentration −8.0,101%
same,TGI,NCI-H23 [1]; NCI-H23,3.59E−6
same,Percent Growth,NCI-H460 [2]; Log10 Concentration −4.0,−58%
same,Percent Growth,NCI-H460 [2]; Log10 Concentration −5.0,−53%
same,Percent Growth,NCI-H460 [2]; Log10 Concentration −6.0,87%
same,Percent Growth,NCI-H460 [2]; Log10 Concentration −7.0,97%
same,Percent Growth,NCI-H460 [2]; Log10 Concentration −8.0,100%
same,TGI,NCI-H460 [2]; NCI-H460,4.19E−6
same,Percent Growth,NCI-H522 [3]; Log10 Concentration −4.0,−18%
same,Percent Growth,NCI-H522 [3]; Log10 Concentration −5.0,6%
same,Percent Growth,NCI-H522 [3]; Log10 Concentration −6.0,90%
same,Percent Growth,NCI-H522 [3]; Log10 Concentration −7.0,103%
same,Percent Growth,NCI-H522 [3]; Log10 Concentration −8.0,103%
same,TGI,NCI-H522 [3]; NCI-H522,1.78E−5
same,GI50,CCRF-CEM,2.18 µM
same,CC50,CCRF-CEM; read-out: LC50,> 100 µM
same,GI50,HL-60(TB); HL-60,2.14 µM
same,CC50,"HL-60(TB); HL-60, read-out: LC50",> 100 µM
same,GI50,K-562; K562,3.23 µM
same,CC50,"K-562; K562, read-out: LC50",> 100 µM
same,Percent Growth,PC-3 [4]; Log10 Concentration −4.0,4%
same,Percent Growth,PC-3 [4]; Log10 Concentration −5.0,11%
same,Percent Growth,PC-3 [4]; Log10 Concentration −6.0,86%
same,Percent Growth,PC-3 [4]; Log10 Concentration −7.0,92%
same,Percent Growth,PC-3 [4]; Log10 Concentration −8.0,96%
same,TGI,PC-3 [4]; PC-3,>1.00E−4
same,GI50,MOLT-4; MOLT-4,1.59 µM
same,CC50,"MOLT-4; MOLT-4, read-out: LC50",> 100 µM
same,TGI,DU-145 [5]; DU-145,1.95E−5
same,Percent Growth,DU-145 [5]; Log10 Concentration −4.0,−100%
same,Percent Growth,DU-145 [5]; Log10 Concentration −5.0,41%
same,Percent Growth,DU-145 [5]; Log10 Concentration −6.0,110%
same,Percent Growth,DU-145 [5]; Log10 Concentration −7.0,114%
same,Percent Growth,DU-145 [5]; Log10 Concentration −8.0,110%
same,GI50,RPMI-8226; RPMI-8226,1.53 µM
same,CC50,"RPMI-8226; RPMI-8226, read-out: LC50",> 100 µM
same,GI50,A549/ATCC; A549,2.25 µM
same,CC50,"A549/ATCC; A549, read-out: LC50",> 100 µM
same,GI50,EKVX,2.19 µM
same,CC50,EKVX; read-out: LC50,56.5 µM
same,GI50,HOP-62; HOP-62,3.59 µM
same,CC50,"HOP-62; HOP-62, read-out: LC50",> 100 µM
same,GI50,HOP-92; HOP-92,2.91 µM
same,CC50,"HOP-92; HOP-92, read-out: LC50",> 100 µM
same,GI50,NCI-H226; NCI-H226,15.6 µM
same,CC50,"NCI-H226; NCI-H226, read-out: LC50",> 100 µM
same,GI50,NCI-H23 [6]; NCI-H23,0.802 µM
same,CC50,"NCI-H23 [6]; NCI-H23, read-out: LC50",> 100 µM
same,GI50,NCI-H460 [7]; NCI-H460,1.84 µM
same,CC50,"NCI-H460 [7]; NCI-H460, read-out: LC50",9.54 µM
same,GI50,NCI-H522 [8]; NCI-H522,3.01 µM
same,CC50,"NCI-H522 [8]; NCI-H522, read-out: LC50",> 100 µM
same,GI50,PC-3 [9]; PC-3,3.03 µM
same,CC50,"PC-3 [9]; PC-3, read-out: LC50",> 100 µM
same,GI50,DU-145 [10]; DU-145,7.41 µM
same,CC50,"DU-145 [10]; DU-145, read-out: LC50",44.2 µM
